From patent US20090221568A1, “Synthesis of Inhibitors of FtsZ” (priority 2005, published 2009)
Read-outs that look alike come from different tables or passages of the source.

Assays:
B. subtilis = details: cited from earlier work
S. aureus = details: cited from earlier work
M. smegmatis = details: cited from earlier work
E. coli FtsZ [1] = target: T1, E. coli FtsZ (Escherichia coli, UniProt P0A9A6); test: FtsZ GTPase assay (malachite green); format: biochemical
T1 construct: made in house; host or cells: E. coli BL21(λDE3)
T1 sequence (P0A9A6 whole entry): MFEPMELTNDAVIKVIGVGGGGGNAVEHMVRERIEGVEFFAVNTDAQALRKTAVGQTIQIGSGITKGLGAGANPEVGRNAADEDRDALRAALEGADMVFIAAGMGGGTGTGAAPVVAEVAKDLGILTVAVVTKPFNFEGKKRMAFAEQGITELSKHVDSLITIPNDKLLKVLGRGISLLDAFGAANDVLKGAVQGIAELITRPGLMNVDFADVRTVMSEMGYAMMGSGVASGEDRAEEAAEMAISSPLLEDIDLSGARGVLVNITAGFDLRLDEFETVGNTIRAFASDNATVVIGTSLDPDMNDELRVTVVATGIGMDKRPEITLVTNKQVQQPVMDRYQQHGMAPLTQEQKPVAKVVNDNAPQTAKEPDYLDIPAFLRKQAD
Protocol: GTPase Assay: Untagged E. coli FtsZ was expressed from pET-3Z^+ in BL21(λDE3) cells (RayChaudhuri, D.; Park, J. T. Nature 1992, 359, 251-254) and purified using a two-step ammonium sulfate fractionation (Romberg et al. J. Biol. Chem. 2001, 276, 11743-11753). FtsZ GTPase assay was performed essentially as described by Margalit et al. (Margalit et al. Proc. Natl. Acad. Sci. U.S.A. 2004, 101, 11821-11826). Briefly, 2 μM E. coli FtsZ in polymerization buffer (4-morpholinepropanesulfonic acid, pH 6.5, 50 mM KCl, 5 mM MgCl2) was preincubated with or without varying concentrations of test compounds (in dimethyl sulfoxide, DMSO) such that the DMSO concentrations in the samples were ˜2%. The control tubes received 2% DMSO alone. After a 5-min preincubation at 25° C., the reactions were initiated by adding 0.5 mM GTP. Aliquots were withdrawn after 5, 15 and 25 ininute intervals and quenched with 50 mM EDTA before color development with the malachite green solution [2 volumes malachite green (0.8 mg/ml)/1 volume polyvinyl alcohol (23.2 mg/ml)/1 volume ammonium molybdate (57.2 mg/ml in 2H2O:3HCl)/2 volumes H2O]. IC50 values were determined from the relative slopes of GTP hydrolysis at different inhibitor concentrations compared to the control with DMSO only.

P. aeruginosa = details: dash with footnote b = no significant activity; cited from earlier work
E. coli = details: dash with footnote b = no significant activity; cited from earlier work
E. coli FtsZ [2] = target: T1, E. coli FtsZ; details: value from Margalit et al. 2004 (footnote a); read-out: Inhibition of E. coli FtsZ GTPase activity, IC50; cited from earlier work
bacterial strains = details: higher MICs indicate that a strain is becoming resistant; cited from earlier work
[3] = 2 μM E. coli FtsZ, 0.5 mM GTP, pH 6.5, 25° C., read-out: Inhibition of E. coli FtsZ GTPase activity, IC50

Row | SMILES | Antimicrobial activities (MICs) B. subtilis (B. subtilis) | Antimicrobial activities (MICs) S. aureus (S. aureus) | Inhibition of E. coli GTPase activity, in words (E. coli FtsZ [1]) | effective MIC defined by NCCLS (bacterial strains) | further results
1 | O=C1C[C@@H](c2ccccc2)Oc2c(Cc3ccccc3O)c(O)c(Cc3ccccc3O)c(O)c21 (racemic) [Compound 2, (±)-Dichamanetin] | 1.7 µM | 1.7 µM | potent inhibitors |  | Antimicrobial activities (MICs) M. smegmatis (M. smegmatis): 3.4 µM; IC50 (E. coli FtsZ [1]; [3]): 12.5 ± 0.5 µM
2 | O=C1C[C@@H](c2ccccc2)Oc2c(Cc3cc(Cc4ccccc4O)ccc3O)c(O)c(Cc3cc(Cc4ccccc4O)ccc3O)c(O)c21 (racemic) [Compound 3, (±)-2′″-Hydroxy-5″-benzylisouvarinol-B] | 2.6 µM | 10.7 µM | potent inhibitors |  | Antimicrobial activities (MICs) M. smegmatis (M. smegmatis): 3.8 µM; Antimicrobial activities (MICs) P. aeruginosa (P. aeruginosa): 15.4 µM; IC50 (E. coli FtsZ [1]): 8.3 ± 0.5 µM; Antimicrobial activities (MICs) E. coli (E. coli): 2.3 µM
3 | CC1(C)CC(=O)c2c(O)c(Cc3ccccc3O)c(O)c(Cc3ccccc3O)c2O1 [5,7-dihydroxy-6,8-bis(2-hydroxybenzyl)-2,2-dimethylchroman-4-one] |  |  |  |  | IC50 (E. coli FtsZ [1]; FIG. 27 legend, test not named, presumably FtsZ GTPase, read-out: IC50): 21 µM
4 | Oc1ccc(Cl)cc1Cc1cc(Cl)cc(Cc2cc(Cl)ccc2O)c1O [Compound 1, Zantrin Z1, reference compound] | 1.25 µM | 2.5 µM |  |  | IC50 (E. coli FtsZ [2]): 5 ± 0.5 µM; Antimicrobial activities (MICs) P. aeruginosa (P. aeruginosa): 40 µM; Antimicrobial activities (MICs) E. coli (E. coli): 20 µM
5 | CC(=O)c1c(O)c(Cc2ccccc2O)c(O)c(Cc2ccccc2O)c1O [Compound 11, 2,4,6-Trihydroxy-3,5-di(2′-hydroxybenzyl)-acetophenone] |  |  | much less potent |  | IC50 (E. coli FtsZ [1]; [3]): 60.4 ± 2.2 µM
6 | CC[C@H]1OC(=O)[C@H](C)[C@@H](O[C@H]2C[C@@](C)(OC)[C@@H](O)[C@H](C)O2)[C@H](C)[C@@H](O[C@@H]2O[C@H](C)C[C@H](N(C)C)[C@H]2O)[C@](C)(O)C[C@@H](C)C(=O)[C@H](C)[C@@H](O)[C@]1(C)O [erythromycin] |  |  |  | 0.4 µM | 
7 | COc1cccc(OC)c1C(=O)N[C@@H]1C(=O)N2[C@@H]1SC(C)(C)[C@@H]2C(=O)O [methicillin] |  |  |  | 0.8 µM | 
8 | CN[C@H](CC(C)C)C(=O)N[C@H]1C(=O)N[C@@H](CC(N)=O)C(=O)N[C@H]2C(=O)N[C@H]3C(=O)N[C@H](C(=O)N[C@H](C(=O)O)c4cc(O)cc(O)c4-c4cc3ccc4O)[C@H](O)c3ccc(c(Cl)c3)Oc3cc2cc(c3O[C@@H]2O[C@H](CO)[C@@H](O)[C@H](O)[C@H]2O[C@H]2C[C@](C)(N)[C@H](O)[C@H](C)O2)Oc2ccc(cc2Cl)[C@H]1O [vancomycin] |  |  |  | 5.8 µM | 
